According to US20230233569A1 (Revolution Medicines, Inc., priority 2020, published 2023):
Values joined by “and” are separate entries in the source; they are usually repeats but may differ in a detail not shown here. Equal values may be shown once.

Tests used:
NCI-H358 (K-Ras G12C) = assay: CellTiter-Glo cell viability assay, 5-day treatment; format: cell-based; conditions: Homo sapiens, NCI-H358, H358, K-Ras G12C; read-out: Additional H358 Cell Viability assay data (K-Ras G12C, IC50)
How it was run: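 Viability is read as luminescence on day 5 after direct compound addition to plated cells, following about 30 minutes' room-temperature equilibration. Each signal is scaled to mean DMSO as 100%.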

[1] = tested on: K-Ras G12C (NCI-H358 cells); assay: Potency assay: pERK (AlphaLISA SureFire or In-Cell Western); format: cell-based; conditions: Homo sapiens, NCI-H358; H358 KRAS G12C; read-out: pERK EC50
Method: (§1) The purpose of this assay is to measure the ability of test compounds to inhibit K-Ras in cells. […] This procedure measures a decrease in cellular pERK in response to test compounds.
(§2) NCI-H358 cells were grown and maintained using media and procedures recommended by the ATCC. On the day prior to compound addition, cells were plated in 384-well cell culture plates (40 μl/well) and grown overnight in a 37° C., 5% CO2 incubator. Test compounds were prepared in 10, 3-fold dilutions in DMSO, with a high concentration of 10 mM. On the day of assay, 40 nL of test compound was added to each well of cell culture plate using an Echo550 liquid handler (LabCyte®). Concentrations of test compound were tested in duplicate. After compound addition, cells were incubated 4 hours at 37° C., 5% CO2. Following incubation, culture medium was removed and cells were washed once with phosphate buffered saline.
(§3) In some experiments, cellular pERK level was determined using the AlphaLISA SureFire Ultra p-ERK1/2 Assay Kit (PerkinElmer). Cells were lysed in 25 μL lysis buffer, with shaking at 600 RPM at room temperature. […] After a 2-hour incubation in the dark, 5 μL donor mix was added, plate was sealed, and incubated 2 hours at room temperature. Signal was read on an Envision plate reader (PerkinElmer) using standard AlphaLISA settings. Analysis of raw data was carried out in Excel (Microsoft) and Prism (GraphPad). Signal was plotted vs. the decadal logarithm of compound concentration, and IC50 was determined by fitting a 4-parameter sigmoidal concentration response model.
In other experiments, cellular pERK was determined by In-Cell Western. […] Fixed cells were washed 4 times for 5 minutes with TBS containing 0.1% Triton X-100 (TBST) and then blocked with 100 μL Odyssey blocking buffer (LI-COR) for 60 minutes at room temperature. […] Cells were washed 4 times for 5 minutes with TBST. Secondary antibody (IR-800CW rabbit, LI-COR, diluted 1:800) and DNA stain DRAQ5 (LI-COR, diluted 1:2000) were added and incubated 1-2 hours at room temperature. Cells were washed 4 times for 5 minutes with TBST. Plates were scanned on a LI-COR Odyssey CLx Imager. Analysis of raw data was carried out in Excel (Microsoft) and Prism (GraphPad). Signal was plotted vs. the decadal logarithm of compound concentration, and IC50 was determined by fitting a 4-parameter sigmoidal concentration response model.
as §1
as §2, with “mM. On day of” for “mM. On the day of”, “assay, 40 nl of test” for “assay, 40 nL of test”
as §3, with “μl” for “μL”, “sealed” for “sealed,”

KRAS G13C = KRAS G13C (Homo sapiens, UniProt P01116+P62937, G13C); assay: Disruption of BRAF RBD interaction with Ras (FRET / MOA assay, with Cyclophilin A); format: biochemical; conditions: KRAS G13C; read-out: KRAS G13C FRET data IC50
Chain of KRAS G13C (P01116 1-169 isoform P01116-2 G13C): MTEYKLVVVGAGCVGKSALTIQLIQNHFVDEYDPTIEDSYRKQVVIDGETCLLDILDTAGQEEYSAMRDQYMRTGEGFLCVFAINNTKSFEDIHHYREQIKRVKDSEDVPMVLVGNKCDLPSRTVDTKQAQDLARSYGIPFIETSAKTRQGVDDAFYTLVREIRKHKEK
Chain of KRAS G13C (P62937 whole entry): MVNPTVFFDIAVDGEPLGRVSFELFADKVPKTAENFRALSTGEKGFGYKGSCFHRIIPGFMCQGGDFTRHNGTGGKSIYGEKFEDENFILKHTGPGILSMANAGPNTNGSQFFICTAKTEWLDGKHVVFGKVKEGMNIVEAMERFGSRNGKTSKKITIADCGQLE
How it was run: (§4)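 TR-FRET: nucleotide-loaded K-Ras mutant or WT with Cyclophilin A and BRAF RBD, compound 10-point 3-fold from 30 μM final, 3 h at 25° C, then anti-His Eu (10 nM) and anti-GST APC (50 nM) for 1.5 h. Decreased FRET ratio versus DMSO gives IC50.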

KRAS G12V = KRAS G12V (Homo sapiens, UniProt P01116+P62937, G12V); assay: as above; format: biochemical; conditions: KRAS G12V; read-out: KRAS G12V FRET data IC50
Chain of KRAS G12V (P01116 1-169 isoform P01116-2 G12V limits assumed): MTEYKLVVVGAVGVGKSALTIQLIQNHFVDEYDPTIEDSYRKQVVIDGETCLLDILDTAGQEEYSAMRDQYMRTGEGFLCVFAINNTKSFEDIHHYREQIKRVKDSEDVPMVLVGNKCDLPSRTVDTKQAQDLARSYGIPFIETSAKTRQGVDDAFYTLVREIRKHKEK
Chain of KRAS G12V (P62937 whole entry): as the sequence (P62937 whole entry) above
How it was run: as §4

KRAS G13D = KRAS G13D (Homo sapiens, UniProt P01116+P62937, G13D); assay: as above; format: biochemical; conditions: KRAS G13D; read-out: KRAS G13D FRET data IC50
Chain of KRAS G13D (P01116 1-169 isoform P01116-2 G13D limits assumed): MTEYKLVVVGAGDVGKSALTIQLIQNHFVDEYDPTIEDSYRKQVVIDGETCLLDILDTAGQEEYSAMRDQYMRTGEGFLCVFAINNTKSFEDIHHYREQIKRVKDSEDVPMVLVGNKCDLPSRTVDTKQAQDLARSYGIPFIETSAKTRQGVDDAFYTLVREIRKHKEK
Chain of KRAS G13D (P62937 whole entry): as the sequence (P62937 whole entry) above
How it was run: as §4

KRAS G12S = KRAS G12S (Homo sapiens, UniProt P01116+P62937, G12S); assay: as above; format: biochemical; conditions: read-out: KRAS G12S FRET data, IC50
Chain of KRAS G12S (P01116 1-169 isoform P01116-2 G12S limits assumed): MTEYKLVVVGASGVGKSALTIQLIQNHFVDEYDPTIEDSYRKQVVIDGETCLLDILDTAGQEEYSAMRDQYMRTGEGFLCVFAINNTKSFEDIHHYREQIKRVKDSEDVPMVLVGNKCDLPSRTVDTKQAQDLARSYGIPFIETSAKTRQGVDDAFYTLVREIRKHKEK
Chain of KRAS G12S (P62937 whole entry): as the sequence (P62937 whole entry) above
How it was run: as §4

KRAS WT = KRAS WT (Homo sapiens, UniProt P01116+P62937); assay: as above; format: biochemical; conditions: KRAS WT; read-out: KRAS WT FRET data IC50
Chain of KRAS WT (P01116 1-169 isoform P01116-2 limits assumed): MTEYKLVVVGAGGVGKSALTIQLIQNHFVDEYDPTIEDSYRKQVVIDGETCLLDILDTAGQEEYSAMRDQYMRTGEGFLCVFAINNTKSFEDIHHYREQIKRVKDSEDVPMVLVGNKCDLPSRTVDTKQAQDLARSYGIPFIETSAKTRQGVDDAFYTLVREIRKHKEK
Chain of KRAS WT (P62937 whole entry): as the sequence (P62937 whole entry) above
How it was run: as §4

KRAS G12D = KRAS G12D (Homo sapiens, UniProt P01116+P62937, G12D); assay: as above; format: biochemical; conditions: read-out: KRAS G12D FRET data, IC50
Chain of KRAS G12D (P01116 1-169 isoform P01116-2 G12D limits assumed): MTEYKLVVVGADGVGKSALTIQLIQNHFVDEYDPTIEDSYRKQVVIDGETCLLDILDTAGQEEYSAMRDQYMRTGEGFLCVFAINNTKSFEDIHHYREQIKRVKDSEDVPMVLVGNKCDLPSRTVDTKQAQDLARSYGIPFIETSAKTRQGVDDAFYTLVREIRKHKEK
Chain of KRAS G12D (P62937 whole entry): as the sequence (P62937 whole entry) above
How it was run: as §4

KRAS G12C = KRAS G12C (Homo sapiens, UniProt P01116+P62937, G12C); assay: as above; format: biochemical; conditions: KRAS G12C; read-out: KRAS G12C FRET data IC50
Chain of KRAS G12C (P01116 1-169 isoform P01116-2 G12C): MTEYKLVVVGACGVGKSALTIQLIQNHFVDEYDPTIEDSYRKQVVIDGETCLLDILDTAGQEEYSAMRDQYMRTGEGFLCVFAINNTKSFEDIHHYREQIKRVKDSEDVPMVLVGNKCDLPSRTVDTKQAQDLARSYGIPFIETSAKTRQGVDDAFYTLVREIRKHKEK
Chain of KRAS G12C (P62937 whole entry): as the sequence (P62937 whole entry) above
How it was run: as §4

NRAS G12C = NRAS G12C (Homo sapiens, UniProt P01111+P62937, G12C); assay: as above; format: biochemical; conditions: NRAS G12C; read-out: NRAS G12C FRET data IC50
Chain of NRAS G12C (P01111 whole entry G12C): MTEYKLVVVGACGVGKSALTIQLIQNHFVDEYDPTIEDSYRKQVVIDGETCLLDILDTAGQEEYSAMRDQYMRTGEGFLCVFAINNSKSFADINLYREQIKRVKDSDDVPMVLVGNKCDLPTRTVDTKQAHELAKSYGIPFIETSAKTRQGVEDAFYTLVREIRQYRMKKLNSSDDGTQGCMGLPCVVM
Chain of NRAS G12C (P62937 whole entry): as the sequence (P62937 whole entry) above

Row | SMILES | IC50 (NCI-H358 (K-Ras G12C)) [nM] | EC50 [1] [µM] | IC50 (KRAS G13C) | IC50 (KRAS G12V) | IC50 (KRAS G13D) | IC50 (KRAS G12S) | IC50 (KRAS WT) | IC50 (KRAS G12D) | IC50 (KRAS G12C) | IC50 (NRAS G12C)
1 | C=CC(=O)N1CC(NC[C@H](C(=O)N[C@H]2Cc3cc(O)cc(c3)-c3ccc4c(c3)c(c(-c3cccnc3COC)n4CC)CC(C)(C)COC(=O)[C@@H]3CCCN(N3)C2=O)C(C)C)C1 [Example A174] | > 1000 | < 5 | 1000 to 10000 nM | > 10000 nM | > 10000 nM | > 10000 nM | > 10000 nM | > 10 µM | 100 to 1000 nM | 1000 to 10000 nM
2 | CCn1c(-c2cccnc2[C@H](C)OC)c2c3cc(ccc31)-c1cc(O)cc(c1)C[C@H](NC(=O)[C@H](C(C)C)N(C)C(=O)[C@H]1CCN(C(=O)C#CCN3CCOCC3)C1)C(=O)N1CCC[C@H](N1)C(=O)OCC(C)(C)C2 [Example A182] | 10 to 100 | < 5 | 1000 to 10000 nM and 10 to 100 nM | 100 to 1000 nM and 1000 to 10000 nM | 100 to 1000 nM and 1000 to 10000 nM | 100 to 1000 nM and 1000 to 10000 nM | 100 to 1000 nM and 1000 to 10000 nM | 1 to 10 µM and > 10 µM | 10 to 100 nM and < 10 nM | 10 to 100 nM and < 10 nM
3 | CCn1c(-c2cccnc2COC)c2c3cc(ccc31)-c1cc(O)cc(c1)C[C@H](NC(=O)[C@@H](C(C)C)N(C)C(=O)[C@H]1CCN(C(=O)C#CC(C)N3CCOCC3)C1)C(=O)N1CCC[C@H](N1)C(=O)OCC(C)(C)C2 (some centres unmarked) [Example A200] | 100 to 1000 | < 5 | 1000 to 10000 nM | > 10000 nM | > 10000 nM | > 10000 nM | > 10000 nM | > 10 µM | 10 to 100 nM | 10 to 100 nM
4 | CCn1c(-c2cccnc2[C@H](C)OC)c2c3cc(ccc31)-c1cc(O)cc(c1)C[C@H](NC(=O)[C@H](C(C)C)N(C)C(=O)c1nc(NC(=O)/C=C/CN(C)C)cs1)C(=O)N1CCC[C@H](N1)C(=O)OCC(C)(C)C2 [Example A258] | 100 to 1000 | < 5 | < 10 nM and 10 to 100 nM | 100 to 1000 nM and 1000 to 10000 nM | 100 to 1000 nM and 1000 to 10000 nM | 1000 to 10000 nM | 100 to 1000 nM and 1000 to 10000 nM | 1 to 10 µM and > 10 µM | 100 to 1000 nM | 100 to 1000 nM

Results, then the compound that gave them:

Row | IC50 (NCI-H358 (K-Ras G12C)) [nM] | EC50 [1] [µM] | IC50 (KRAS G13C) | IC50 (KRAS G12V) | IC50 (KRAS G13D) | IC50 (KRAS G12S) | IC50 (KRAS WT) | IC50 (KRAS G12D) | IC50 (KRAS G12C) | IC50 (NRAS G12C) | SMILES
5 | < 10 | < 5 | 100 to 1000 nM | 100 to 1000 nM | 1000 to 10000 nM | 1000 to 10000 nM | 1000 to 10000 nM | 1 to 10 µM | < 10 nM | < 10 nM | CCn1c(-c2cccnc2COC)c2c3cc(ccc31)-c1cc(O)cc(c1)C[C@H](NC(=O)[C@H](C(C)C)N(C)C(=O)[C@H]1CCN(C(=O)C#CC(C)(C)N(C)C)C1)C(=O)N1CCC[C@H](N1)C(=O)OCC(C)(C)C2 [Example A162]
6 | 100 to 1000 | < 5 | 100 to 1000 nM | 100 to 1000 nM | 100 to 1000 nM | 100 to 1000 nM | 100 to 1000 nM | 1 to 10 µM | 10 to 100 nM | 10 to 100 nM | CCn1c(-c2cccnc2COC)c2c3cc(ccc31)-c1cc(O)cc(c1)C[C@H](NC(=O)[C@H](C(C)C)N(C)C(=O)[C@H]1CCN(C(=O)/C=C\CN(C)C)C1)C(=O)N1CCC[C@H](N1)C(=O)OCC(C)(C)C2 [Example A164]
7 | 10 to 100 | < 5 | 1000 to 10000 nM | 1000 to 10000 nM | 1000 to 10000 nM | 1000 to 10000 nM | 1000 to 10000 nM | > 10 µM | 100 to 1000 nM | 100 to 1000 nM | C=CC(=O)N1CC[C@H](C(=O)N(C)[C@H](C(=O)N[C@H]2Cc3cc(O)cc(c3)-c3ccc4c(c3)c(c(-c3cccnc3[C@H](C)OC)n4C)CC(C)(C)COC(=O)[C@@H]3CCCN(N3)C2=O)C(C)C)C1 [Example A197]
8 | 10 to 100 | < 5 | 1000 to 10000 nM | > 10000 nM | > 10000 nM | > 10000 nM | > 10000 nM | > 10 µM | 10 to 100 nM | 100 to 1000 nM | CCn1c(-c2cccnc2[C@H](C)OC)c2c3cc(ccc31)-c1cc(sn1)C[C@H](NC(=O)[C@H](C(C)C)N(C)C(=O)[C@@H]1CCN(C(=O)C#CCN3CCOCC3)C1)C(=O)N1CCC[C@H](N1)C(=O)OCC(C)(C)C2 [Example A201]
